Data on two compounds can be found in patent US6492530B1, “Amorphous form of cell cycle inhibitor having improved solubility and bioavailability” (Hoffmann-La Roche Inc., priority 2000, dated 2002).

The nature of data set [1]: Bioavailability / pharmacokinetics in beagle dogs after single oral dose. Type of data set: in vivo. The protocol:
Additionally, preparations containing crystalline compound of formula I (Examples IIIB and IIIC) and amorphous compound of formula I (Example IIA) were evaluated for bioavailability in beagle dogs with body weight of approximately 10 kg. Each dog was given a formulation containing 90 mg of compound of formula I. Blood samples were collected from each dog prior to dosing (0 h) and at 0.5, 1, 2, 4, 6, 8, 12, 24, 36 and 48 hours after dosing. EDTA was used as an anticoagulant. Each plasma sample was separated after cold centrifugation and frozen in an amber vial at a minimum of −60° C. before analysis. Compound of formula I was extracted from plasma and the plasma concentration of compound of formula I was determined using a positive ion TurbolonSpray LC-MS/MS assay[HPLC using HP1100 LC system, Hewleft-Packard, Inc. (Agilent Technologies, Wilmington, Del.) and Mass Spectrometer using PE-Sciex API-3+ (Perkin-Elmer Instruments, Wilton, Conn.), Ionization mode: Turbulonspray, 500C, positive ion] The calibration range was 1 to 1,000 ng/mL using a 100-μL plasma sample. […]

Data set [2] is described as follows: Two-stage dissolution method (water, then 6% SLS in phosphate buffer pH 6.8). Type of data set: physicochemical. Particulars: FIG. 6 dissolution profile, Example IIA versus Example IIIA. As to the method:
The formulation of Example IIIA containing crystalline compound of formula I (Example IIIA) and the formulation of (Example IIA) containing amorphous compound of formula I were evaluated for dissolution by a two-stage (two dissolution media) dissolution method. At Stage I, 300 mL of deionized water at 37°±0.5° C. using paddles at 75 rpm was used. At Stage II, 600 mL of 6% w/v Sodium Lauryl Sulfate in 0.015M Phosphate Buffer, pH 6.8 equilibrated at 37°±0.5° C., was carefully added into the dissolution vessel 25 minutes after the Stage I dissolution was initiated. Sample aliquots were taken at different time intervals and analyzed by UV spectrophotometry.

A short description of data set [3]: Stability of the amorphous form under accelerated storage (powder X-ray diffraction). Particulars: 40° C./75% RH, closed glass vial for 6 months, independent of form stabilizers; FIG. 5. Type of data set: physicochemical.
A short description of the next data set: physchem. To be noted: aqueous media at physiological pHs, aqueous buffer. The source says:
A crystalline form of the compound of formula I is known. See, e.g., U.S. Pat. No. Re. 36,736. […] (Id. column 22, lines 5-6). […] See, e.g. U.S. Pat. No. 6,048,887 and EP 0 988,863.

Entries after “also recorded” stand apart in the source; their conditions may differ.

As to `Cn1cc(C2=C(c3cn(C)c4cc([N+](=O)[O-])ccc34)C(=O)NC2=O)c2ccccc21` [amorphous compound of formula I, 3-(1-methyl-3-indolyl)-4-(1-methyl-6-nitro-3-indolyl)-1H-pyrrole-2,5,-dione], in data set [1] (amorphous versus crystalline form), the “bioavailability as compared to the crystalline form” value is “approximately 15 fold”. Besides, the “solubility versus crystalline form” value in data set [2] is given as “much more soluble”. Also, in data set [3], the “retention of amorphous form on storage” value was “maintained its amorphous properties; also recorded: remained in its amorphous form”.
One may read the solubility as the dissolved amount per volume that the medium holds. What is called bioavailability is the share of a dose that reaches the circulation, judged against a reference dose that is usually intravenous. The compound `Cn1cc(C2=C(c3cn(C)c4cc([N+](=O)[O-])ccc34)C(=O)NC2=O)c2ccccc21` [crystalline compound of formula I, 3-(1-methyl-3-indolyl)-4-(1-methyl-6-nitro-3-indolyl)-1H-pyrrole-2,5,-dione, reference compound] yielded a solubility in the data set “physchem” of less than 10 µg/mL. The compound also gave a bioavailability in data set [1] (dog, in vivo, in dogs, previously known crystalline form (background statement)) of less than 5%.
